Values of other authors, collected in US20170095440A1, “METHOD OF TREATING CANINE PANCREATITIS” (CK9, LLC, priority 2014, published 2017).

Tested on: serine protease
Conditions: hydrolysis products of Camostat Mesilate; cited from earlier work

Row | SMILES | Anti-proteolytic activity
1 | N=C(N)Nc1ccc(C(=O)O)cc1 [GBA, 4-guanidinobenzoic acid] | non-active
2 | N=C(N)Nc1ccc(C(=O)Oc2ccc(CC(=O)O)cc2)cc1 [GBPA, 4-(4-guanidino-benzoyloxy) phenylacetic acid] | active anti-proteolytic metabolite
